Measured values published in patent US11890266B2 (University of Canberra, priority 2016, dated 2024).

Assays:
[1] = system: form-deprivation myopia (FDM) in chick eyes fitted with a translucent diffuser; assay: Form-deprivation myopia (FDM) induced by translucent diffuser, five day treatment; axial length and refraction; type: in vivo, White Cockerel chickens; settings: Example 15, five days; for effect of intravitreal injection versus topical administration on refraction and axial elongation: daily administration; for axial elongation in comparison with animals fitted with a translucent diffuser only (G2) / myopic shift in refraction in comparison with animals fitted with a translucent diffuser only (G2): ADTN 1 mM, atropine 2 mM, pirenzepine 16 mM
Protocol: For the drug treatments, the compositions were administered under light isoflurane anesthesia using intravitreal injection or topical administration.
Intravitreal injection was performed as follows: Using a 30 gauge needle attached to a Hamilton syringe, 10 μL (0.01 mL) of the test composition was injected into the vitreous chamber of the eye once daily.
Topical administration was performed as follows: Two drops of 40 μL (two drops of 0.04 mL, or 0.08 mL total) of the test composition was applied to the corneal surface of the eye using an eye drop dispenser. Drops were applied to the chicks twice daily.
To determine changes in the rate of eye growth and the development of myopia, changes in axial length and refraction were assessed. Myopia is associated with excessive elongation of the eye in the axial direction relative to normal growth rates. Such excessive axial elongation leads to a relative myopic change in refraction. Axial length and refraction were measured using A-scan ultrasonography (Biometer AL-100; Tomey Corporation, Nagoya, Japan) and automated infrared photo-retinoscopy respectively. Statistical analysis of changes in both refraction and axial length between groups involved a one-way ANOVA test followed by a Student's T-test with Bonferroni correction. All data are presented as the mean±the […] of the mean (SEM). […]
70 male White Cockerel chickens were randomly assigned to one of 14 treatment groups as defined below (n=5 per group) and were treated for a five day period. G1-G14 represent the labelling system used in FIGS. 11 and 12.
ADTN compositions were prepared by dissolving ADTN in a solution containing 0.1% ascorbic acid in 1×PBS to a final concentration of 1 mM (0.03% w/v), and adjusting the pH to 7. Atropine and pirenzepine compositions were prepared by dissolving atropine (in the form of atropine sulfate salt monohydrate) or pirenzepine (in the form of pirenzepine dihydrochloride) in distilled water to a final concentration of 2 mM (0.14% w/v) and 16 mM (0.7% w/v), respectively, and adjusting the pH to 7.
Administration of test compositions and measurement of ocular parameters was performed in accordance with that described in Example 4.

[2] = system: form-deprivation myopia (FDM) in chick eyes fitted with a translucent diffuser; assay: Safety and efficacy of topical levodopa in form-deprivation myopia over a four week period; type: in vivo, White Cockerel chickens; settings: topical 0.3% w/v (15 mM) levodopa composition of Example 1, twice daily, four weeks
Protocol: Male White Cockerel chickens were kept under normal laboratory light (500 lux, fluorescent lights) on a 12:12 hour light:dark cycle with lights on at 9:30 am and off at 9:30 pm. In all chicks, left eyes were treated experimentally while right eyes remained untreated to serve as a contralateral control. Chicks were randomly assigned to one of four groups (n=6 for each group) and treated over the four week period under the following experimental conditions: • 1. […] Form-deprivation myopia (FDM): Chicks were fitted with a translucent diffuser over their left eye to induce FDM, receiving no further treatment • 3.
Administration of the test compositions was performed in accordance with that described in Example 4.
To determine changes in the rate of eye growth and the development of myopia, axial length and refraction were measured using A-scan ultrasonography (Biometer AL-100; Tomey Corporation, Nagoya, Japan) and automated infrared photo-retinoscopy, respectively. Ocular measurements (axial length and refraction) were made on day one (prior to the commencement of experimentation) and every seven days for four weeks.
A multivariate analysis of variance (MANOVA) with repeated measures design was used to compare the effect of the different treatment regimens over time.

[3] = daily topical administration, levodopa 0.03% w/v in combinations

Row | SMILES | effect of intravitreal injection versus topical administration on refraction and axial elongation [1] | axial elongation in comparison with animals fitted with a translucent diffuser only (G2) ([1]; daily intravitreal injection) | myopic shift in refraction in comparison with animals fitted with a translucent diffuser only (G2) ([1]; daily intravitreal injection) | axial elongation in comparison with animals fitted with a translucent diffuser only (G2) [1, 3] | myopic shift in refraction in comparison with animals fitted with a translucent diffuser only (G2) [1, 3] | axial elongation in comparison to diffusers in the absence of levodopa treatment [2]
1 | NC1CCc2cc(O)c(O)cc2C1 (stereo not shown) [ADTN, 2-amino-6,7-dihydroxy-1,2,3,4-tetrahydronaphthalene] | intravitreal injection having a greater effect than topical administration | decreased axial elongation | significantly inhibited the myopic shift in refraction | decreased axial elongation | significantly inhibited the myopic shift in refraction | –
2 | CN1[C@@H]2CC[C@H]1C[C@@H](OC(=O)C(CO)c1ccccc1)C2 (stereo partly shown) [atropine] | intravitreal injection having a greater effect than topical administration | decreased axial elongation | significantly inhibited the myopic shift in refraction | decreased axial elongation | significantly inhibited the myopic shift in refraction | –
3 | N[C@@H](Cc1ccc(O)c(O)c1)C(=O)O [levodopa] | – | – | – | – | – | decreased axial elongation
4 | CN1CCN(CC(=O)N2c3ccccc3C(=O)Nc3cccnc32)CC1 [pirenzepine] | greater when intravitreally administered | decreased axial elongation | significantly inhibited myopic shifts in refractive development | decreased axial elongation | significantly inhibited myopic shifts in refractive development | –
